US20240182407A1, “QUINOLINE COMPOUND SALT OR CRYSTAL FORM, PREPARATION METHOD THEREFOR, AND APPLICATION THEREOF” (Nanjing Zenshine Pharmaceuticals Co., Ltd., priority 2021, published 2024)
Converted amounts (≈) assume the structure as drawn.

How the values were obtained:
PI3Kβ = biological target: T1, PI3Kβ (Homo sapiens, UniProt P42338); assay: Akt phosphorylation in PC-3 cells stimulated by LPA (AlphaLISA); conditions: phosphorylation of Akt, read-out: IC50 PI3Kβ Cell-based
T1 construct: host or cells: PC-3 cells
Protocol: (§1) In addition, taking Sample 6 as an example, the inhibitory effects thereof on PI3Kα, PI3Kβ, PI3Kγ and PI3Kδ in corresponding cells were determined. The activity of PI3Kα was detected by the phosphorylation level of Akt in C2Cl2 cells stimulated by IGF-1, the activity of PI3Kβ was detected by the phosphorylation level of Akt in PC-3 cells stimulated by LPA, the activity of PI3Kγ was detected by the phosphorylation level of Akt in Raw264.7 cells stimulated by c5α, and the activity of PI3Kδ was detected by the phosphorylation level of Akt in Raji cells stimulated by IgM. The phosphorylation level of Akt in cells was determined by means of AlphaLISA technique from PerkinElemer.
(§2) The C2C12 cells, PC-3 cells, Raw264.7 cells and Raji cells were all purchased from ATCC.

[1] = test system: mouse colorectal cancer CT26. WT cell; assay: Mouse colorectal cancer CT26. WT cell subcutaneous transplantation tumor model; format: in vivo
Description: WT cell subcutaneous transplantation tumor model.

WSU-DLCL-2 = assay: Proliferation of lymphoma cell line in vitro, WSU-DLCL-2; format: cell-based; conditions: Homo sapiens, WSUDLCL2, read-out: absolute IC50 (AbsIC50), proliferation
[2] = Dynamic water desorption analysis (DVS), hygroscopicity; format: physicochemical
Protocol: (§3) The instrument model used for DVS analysis was IGA Sorp (Hidentity Isochema). The sample was measured in a gradient mode, the humidity range for the test was from 0% to 90%, and the humidity increment of each gradient was 10%. The time to keep at each humidity gradient was from 30 min to 2 h.
It was determined by NMR and TGA that the sample had essentially no weight loss and no solvent residue before decomposition.
as §3, with “Sample 3 was taken as an example for dynamic water desorption analysis (DVS) characterization. The instrument” for “The instrument”

[3] = Solubility in organic solvents; format: physicochemical; conditions: organic solvent or mixture
Description: Therefore, these two solvents were taken, for example, as good solvents and subjected to anti-solvent precipitation experiments.

PI3Kδ = biological target: T2, PI3Kδ (Homo sapiens, UniProt O00329); assay: Akt phosphorylation in Raji cells stimulated by IgM (AlphaLISA); conditions: phosphorylation of Akt, read-out: IC50 PI3Kδ Cell-based
T2 construct: host or cells: Raji cells
Protocol: as §1, §2

DoHH-2 = assay: Proliferation of lymphoma cell line in vitro, DoHH-2; format: cell-based; conditions: Homo sapiens, read-out: absolute IC50 (AbsIC50), proliferation
PI3Kγ = biological target: T3, PI3Kγ (Mus musculus, UniProt Q9JHG7); assay: Akt phosphorylation in Raw264.7 cells stimulated by c5α (AlphaLISA); conditions: phosphorylation of Akt, read-out: IC50 PI3Kγ Cell-based
T3 construct: host or cells: Raw264.7 cells
Protocol: as §1, §2

SU-DHL-4 = assay: Proliferation of lymphoma cell line in vitro, SU-DHL-4; format: cell-based; conditions: Homo sapiens, read-out: absolute IC50 (AbsIC50), proliferation
[4] = Solubility in simulated gastrointestinal fluids (SGF, FeSSIF, FaSSIF) at 37° C.; format: physicochemical; conditions: for Solubility: 37° C.; for Solubility / pH of filtrate: listed as Sample 5; for solubility at 30 min / solubility at 2 h / solubility at 24 h: 37 °C, thermodynamic from solid
Protocol: The solubilities of Compound A and p-toluenesulfonate (Sample 5, crystal form I) in simulated gastrointestinal fluids (SGF, FeSSIF and FaSSIF) at 37° C. were tested.
About 7.5 mg of Compound A and p-toluenesulfonate were separately added to 1.5 mL of three biological vehicles to prepare suspensions. All the suspensions were placed in a shaker at 37° C. and shaken at 200 rpm for 24 h, and about 0.5 mL was sampled separately at 0.5 h, 2 h and 24 h for filtration. The obtained filtrates were subjected to HPLC analysis and pH measurement, and the filter cakes were respectively measured by XRPD.

[5] = Crystal form stability under grinding (XRPD); format: physicochemical; conditions: ground in a mortar for 2 min
Protocol: In addition, the stability of p-toluenesulfonate crystal form I (Sample 8) under grinding and high humidity conditions was investigated.
A certain amount of p-toluenesulfonate crystal form I was ground in a mortar for 2 min and then measured by XRPD.

SU-DHL-6 = assay: Proliferation of lymphoma cell line in vitro, SU-DHL-6; format: cell-based; conditions: Homo sapiens, read-out: absolute IC50 (AbsIC50), proliferation

T3 sequence (Q9JHG7 whole entry): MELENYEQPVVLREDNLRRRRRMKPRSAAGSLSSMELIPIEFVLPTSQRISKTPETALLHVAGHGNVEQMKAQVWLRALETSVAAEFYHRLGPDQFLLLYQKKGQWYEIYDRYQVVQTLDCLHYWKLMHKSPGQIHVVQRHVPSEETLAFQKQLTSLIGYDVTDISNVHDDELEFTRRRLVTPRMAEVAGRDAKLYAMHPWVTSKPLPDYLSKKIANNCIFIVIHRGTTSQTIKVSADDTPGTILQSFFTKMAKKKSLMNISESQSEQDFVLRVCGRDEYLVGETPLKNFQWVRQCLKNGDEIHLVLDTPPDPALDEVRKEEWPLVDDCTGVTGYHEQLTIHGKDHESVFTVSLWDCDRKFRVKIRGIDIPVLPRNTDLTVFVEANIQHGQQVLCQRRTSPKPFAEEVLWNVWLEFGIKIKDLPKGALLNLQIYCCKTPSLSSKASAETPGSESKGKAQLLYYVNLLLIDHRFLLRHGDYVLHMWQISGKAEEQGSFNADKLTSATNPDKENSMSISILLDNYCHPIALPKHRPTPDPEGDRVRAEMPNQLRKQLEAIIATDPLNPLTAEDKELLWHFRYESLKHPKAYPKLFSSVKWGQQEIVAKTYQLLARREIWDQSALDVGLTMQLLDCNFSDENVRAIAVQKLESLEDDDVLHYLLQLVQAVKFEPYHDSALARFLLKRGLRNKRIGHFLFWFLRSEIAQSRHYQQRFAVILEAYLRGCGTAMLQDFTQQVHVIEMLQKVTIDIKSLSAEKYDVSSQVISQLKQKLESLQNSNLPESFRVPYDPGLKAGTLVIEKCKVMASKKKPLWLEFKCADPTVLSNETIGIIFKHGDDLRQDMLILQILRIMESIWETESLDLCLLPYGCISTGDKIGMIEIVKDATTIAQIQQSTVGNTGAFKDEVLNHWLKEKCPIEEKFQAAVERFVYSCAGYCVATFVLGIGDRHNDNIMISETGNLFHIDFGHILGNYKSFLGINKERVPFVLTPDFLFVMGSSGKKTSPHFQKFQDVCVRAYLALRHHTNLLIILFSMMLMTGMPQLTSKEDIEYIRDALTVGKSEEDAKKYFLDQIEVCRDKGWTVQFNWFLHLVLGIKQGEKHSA
T1 sequence (P42338 whole entry): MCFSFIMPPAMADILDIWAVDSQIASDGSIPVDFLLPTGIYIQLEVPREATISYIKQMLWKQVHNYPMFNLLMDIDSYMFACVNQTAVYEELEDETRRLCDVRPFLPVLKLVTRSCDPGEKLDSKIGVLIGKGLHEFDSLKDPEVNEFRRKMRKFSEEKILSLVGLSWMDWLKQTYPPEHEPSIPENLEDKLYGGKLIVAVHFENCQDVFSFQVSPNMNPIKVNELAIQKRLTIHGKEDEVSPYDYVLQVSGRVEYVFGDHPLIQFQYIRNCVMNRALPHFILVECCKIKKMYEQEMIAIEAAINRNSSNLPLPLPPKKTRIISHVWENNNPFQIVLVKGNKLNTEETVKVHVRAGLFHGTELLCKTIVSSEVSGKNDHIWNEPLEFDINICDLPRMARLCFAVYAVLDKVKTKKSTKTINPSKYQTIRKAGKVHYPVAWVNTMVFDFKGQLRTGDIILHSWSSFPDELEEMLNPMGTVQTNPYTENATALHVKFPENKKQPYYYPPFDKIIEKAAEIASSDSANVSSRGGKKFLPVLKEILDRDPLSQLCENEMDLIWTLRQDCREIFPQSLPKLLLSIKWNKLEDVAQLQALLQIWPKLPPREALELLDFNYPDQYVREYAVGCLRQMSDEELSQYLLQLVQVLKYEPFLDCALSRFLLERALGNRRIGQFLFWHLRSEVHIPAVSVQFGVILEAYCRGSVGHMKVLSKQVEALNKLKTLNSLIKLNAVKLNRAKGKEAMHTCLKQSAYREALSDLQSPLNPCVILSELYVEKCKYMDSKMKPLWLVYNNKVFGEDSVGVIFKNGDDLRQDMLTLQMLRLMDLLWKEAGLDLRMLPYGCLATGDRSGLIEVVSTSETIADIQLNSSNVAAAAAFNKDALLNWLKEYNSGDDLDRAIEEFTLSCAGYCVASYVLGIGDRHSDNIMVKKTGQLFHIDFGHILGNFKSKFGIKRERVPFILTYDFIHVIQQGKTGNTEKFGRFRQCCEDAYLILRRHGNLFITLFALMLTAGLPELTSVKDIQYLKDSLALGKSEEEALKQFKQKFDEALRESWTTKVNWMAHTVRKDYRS
T1 sequence (P27986 whole entry partner): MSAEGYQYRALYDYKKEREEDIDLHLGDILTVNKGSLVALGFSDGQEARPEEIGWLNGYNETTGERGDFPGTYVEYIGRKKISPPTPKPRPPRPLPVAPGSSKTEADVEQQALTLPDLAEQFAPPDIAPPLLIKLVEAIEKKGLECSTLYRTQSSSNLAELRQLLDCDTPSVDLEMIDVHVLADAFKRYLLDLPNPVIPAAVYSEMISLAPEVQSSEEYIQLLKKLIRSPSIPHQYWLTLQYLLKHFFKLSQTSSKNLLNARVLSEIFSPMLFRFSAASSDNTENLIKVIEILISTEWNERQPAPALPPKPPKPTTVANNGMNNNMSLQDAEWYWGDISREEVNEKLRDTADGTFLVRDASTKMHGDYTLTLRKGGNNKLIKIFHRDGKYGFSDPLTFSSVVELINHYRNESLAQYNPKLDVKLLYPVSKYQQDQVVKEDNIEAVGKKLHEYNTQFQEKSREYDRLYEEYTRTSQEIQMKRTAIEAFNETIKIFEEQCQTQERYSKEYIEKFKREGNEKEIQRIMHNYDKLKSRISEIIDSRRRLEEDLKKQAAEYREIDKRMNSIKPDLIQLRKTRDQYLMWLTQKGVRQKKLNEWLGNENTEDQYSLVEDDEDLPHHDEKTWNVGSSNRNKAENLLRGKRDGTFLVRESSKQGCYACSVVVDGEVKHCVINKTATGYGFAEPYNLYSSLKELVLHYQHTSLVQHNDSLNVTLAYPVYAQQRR
T2 sequence (O00329 whole entry): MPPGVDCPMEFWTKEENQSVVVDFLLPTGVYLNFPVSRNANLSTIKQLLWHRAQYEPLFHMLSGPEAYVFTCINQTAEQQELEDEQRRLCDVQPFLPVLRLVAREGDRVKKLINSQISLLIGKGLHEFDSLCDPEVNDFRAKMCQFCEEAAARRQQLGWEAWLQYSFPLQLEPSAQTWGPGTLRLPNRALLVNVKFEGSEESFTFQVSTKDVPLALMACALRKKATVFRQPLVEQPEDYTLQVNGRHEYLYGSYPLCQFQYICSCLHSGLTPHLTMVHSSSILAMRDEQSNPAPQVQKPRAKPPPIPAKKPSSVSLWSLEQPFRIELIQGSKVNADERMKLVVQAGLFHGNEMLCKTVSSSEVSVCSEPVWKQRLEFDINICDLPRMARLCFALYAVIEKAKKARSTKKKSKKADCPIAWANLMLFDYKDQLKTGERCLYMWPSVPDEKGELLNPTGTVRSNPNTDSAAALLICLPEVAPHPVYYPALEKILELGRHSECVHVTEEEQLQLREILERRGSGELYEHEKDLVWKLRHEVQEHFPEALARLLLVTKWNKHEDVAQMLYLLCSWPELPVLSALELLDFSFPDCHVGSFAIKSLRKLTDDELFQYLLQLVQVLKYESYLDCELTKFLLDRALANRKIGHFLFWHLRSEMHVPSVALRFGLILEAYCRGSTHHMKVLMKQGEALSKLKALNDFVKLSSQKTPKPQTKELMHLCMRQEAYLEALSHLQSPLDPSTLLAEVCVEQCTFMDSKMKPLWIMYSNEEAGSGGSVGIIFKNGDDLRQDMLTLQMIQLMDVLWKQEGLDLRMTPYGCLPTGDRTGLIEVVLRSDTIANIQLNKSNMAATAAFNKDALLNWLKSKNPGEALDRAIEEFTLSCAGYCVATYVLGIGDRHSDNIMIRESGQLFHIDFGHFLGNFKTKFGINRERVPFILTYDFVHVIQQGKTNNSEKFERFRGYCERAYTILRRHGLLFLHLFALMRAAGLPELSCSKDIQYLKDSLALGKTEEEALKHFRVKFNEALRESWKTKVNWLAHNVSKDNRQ
T2 sequence (P27986 whole entry partner): as the sequence (P27986 whole entry partner) above

IC50 (PI3Kβ): 126 nM
IC50 (WSU-DLCL-2): < 100 nM
crystal form before and after humidity change (XRPD after DVS) ([2]; 0% to 90% RH): remained unchanged
moisture absorbed (DVS) ([2]; at 90% RH): 0.92%
Solubility ([3]; methanol, read-out: solubility in methanol): > 24000 µg/mL
Solubility ([3]; tetrahydrofuran, read-out: solubility in tetrahydrofuran): > 11600 µg/mL
IC50 (PI3Kδ): 0.95 nM
IC50 (DoHH-2): < 100 nM
IC50 (PI3Kγ): 29 nM
IC50 (SU-DHL-4): < 100 nM
Solubility ([4]; FaSSIF (pH 6.52), 30 min): 570 µg/mL (≈ 1.42 mM)
Solubility ([4]; FaSSIF (pH 6.52), 2 h): 560 µg/mL (≈ 1.4 mM)
Solubility ([4]; FaSSIF (pH 6.52), 24 h): 550 µg/mL (≈ 1.37 mM)
pH of filtrate ([4]; FaSSIF (pH 6.52), 0.5 h): 6.27
pH of filtrate ([4]; FaSSIF (pH 6.52), 2 h): 6.10
pH of filtrate ([4]; FaSSIF (pH 6.52), 24 h): 5.38
pH of filtrate ([4]; FeSSIF (pH 4.99), 0.5 h): 4.81
pH of filtrate ([4]; FeSSIF (pH 4.99), 2 h): 4.80
pH of filtrate ([4]; FeSSIF (pH 4.99), 24 h): 4.69
solubility at 30 min ([4]; FeSSIF, pH 4.99, fessif, FeSSIF (pH 4.99), 30 min): 1310 µg/mL (≈ 3.27 mM)
solubility at 2 h ([4]; FeSSIF, pH 4.99, fessif, FeSSIF (pH 4.99), 2 h): 2740 µg/mL (≈ 6.84 mM)
solubility at 24 h ([4]; FeSSIF, pH 4.99, fessif, FeSSIF (pH 4.99), 24 h): 3570 µg/mL (≈ 8.92 mM)
pH of filtrate ([4]; SGF (pH 1.21), 0.5 h): 1.05
pH of filtrate ([4]; SGF (pH 1.21), 2 h): 1.10
pH of filtrate ([4]; SGF (pH 1.21), 24 h): 1.11
solubility at 30 min ([4]; SGF, pH 1.21, simulated gastric fluid, SGF (pH 1.21), 30 min): > 5440 µg/mL
solubility at 2 h ([4]; SGF, pH 1.21, simulated gastric fluid, SGF (pH 1.21), 2 h): > 5400 µg/mL
solubility at 24 h ([4]; SGF, pH 1.21, simulated gastric fluid, SGF (pH 1.21), 24 h): > 5350 µg/mL
crystal form after grinding (XRPD) [5]: still p-toluenesulfonate crystal form I
IC50 (SU-DHL-6): < 100 nM
SMILES: C[C@H](Nc1nc(N)nc(N)c1C#N)c1cc2ccc(F)cc2nc1-c1ccccn1 [p-toluenesulfonate of Compound A]
effect on tumor volume growth [1]: significant inhibitory effect
